{
  "source": "paper PMC7052193",
  "about": "“Nanobody-enabled monitoring of kappa opioid receptor states” (Nature Communications, 2020)",
  "key": {"ETA [1]": {"tested_on": "ETA", "assay_type": "cell-based, human", "details": "ETA-KOR, Log [Drug]"}, "ETA [2]": {"tested_on": "ETA", "assay_type": "cell-based, human", "details": "ETA-KOR"}, "KOR": {"target": "KOR (Homo sapiens, UniProt P41145)", "experiment": "Competition binding with 3H-JDTic in the absence or presence of 5 µM Nb6 or Nb39"}, "[3]": {"target": "T1, human KOR containing C-terminal Renilla luciferase (RLuc8) (human, UniProt P41145)", "T1 construct": "kappa opioid receptor, human, wild type; also called KOR-Rluc; kappa opioid receptor; source: HEK 293T, co-transfected, in live cells; not shown: RLuc8, C-terminal, kept", "experiment": "FRET or BRET; live HEK 293T cells co-transfected with receptor-RLuc and nanobody-mVenus (1:3); net BRET ratio without agonist (no drug, or with the antagonist JDTic); 20 mM HEPES, 1X HBSS, pH 7.4", "details": "partners not purified"}, "[4]": {"target": "T1, human KOR containing C-terminal Renilla …", "experiment": "FRET or BRET; kinetic BRET in HEK 293T cells co-expressing KOR-Rluc and Nb6-mVenus or Nb39-mVenus; 10 µM Sal A, then 10 µM JDTic added at the indicated times; t1/2 from one phase exponential decay", "details": "partners not purified"}},
  "note": "Several values for one entry are separate records, joined by “and”; a condition that tells them apart may be missing. Equal values may be shown once. Read-outs that look alike come from different tables or passages of the source.",
  "data": [
    {"molecule": "CC[C@H](C)[C@H](NC(=O)[C@H](CC(=O)O)NC(=O)[C@H](CC(C)C)NC(=O)[C@H](Cc1c[nH]cn1)NC(=O)[C@@H]1CSSC[C@H](N)C(=O)N[C@@H](CO)C(=O)N[C@H]2CSSC[C@H](NC(=O)[C@H](CCC(=O)O)NC(=O)[C@H](CCCCN)NC(=O)[C@H](CC(=O)O)NC(=O)[C@H](CCSC)NC(=O)[C@H](CC(C)C)NC(=O)[C@H](CO)NC(=O)[C@H](CO)NC2=O)C(=O)N[C@@H](C(C)C)C(=O)N[C@@H](Cc2ccc(O)cc2)C(=O)N[C@@H](Cc2ccccc2)C(=O)N1)C(=O)N[C@H](C(=O)N[C@@H](Cc1c[nH]c2ccccc12)C(=O)O)[C@@H](C)CC", "note": "[Endothelin-1]", "values": [
      {"measurement": "Net BRET G protein activation, source data Figure 5c", "setting": "ETA [1]; M = -5.5", "result": "8.126 and 14.2188 and 11.7402"},
      {"measurement": "Net BRET G protein activation, source data Figure 5c", "setting": "ETA [1]; M = -6.5", "result": "13.3731 and 8.584 and 11.2246"},
      {"measurement": "Net BRET G protein activation, source data Figure 5c", "setting": "ETA [1]; M = -7.5", "result": "27.9656 and 34.3494 and 31.9455"},
      {"measurement": "Net BRET G protein activation, source data Figure 5c", "setting": "ETA [1]; M = -8.5", "result": "53.981 and 48.3799 and 51.5065"},
      {"measurement": "Net BRET G protein activation, source data Figure 5c", "setting": "ETA [1]; M = -9.5", "result": "73.7875 and 86.5149 and 80.3002"},
      {"measurement": "Net BRET G protein activation, source data Figure 5c", "setting": "ETA [1]; M = -10.5", "result": "94.2005 and 91.2115 and 93.274"},
      {"measurement": "Net BRET G protein activation, source data Figure 5c", "setting": "ETA [1]; M = -11.5", "result": "104.258 and 97.1609 and 101.662"},
      {"measurement": "Net BRET G protein activation, source data Figure 5c", "setting": "ETA [1]; M = -12.5", "result": "100.567 and 115.131"},
      {"measurement": "Net BRET receptor and Nb6, source data Figure 5b", "setting": "ETA [2]; Log [Endothelin-1,] M = -5", "result": "4.499 and 7.7967 and 6.394"},
      {"measurement": "Net BRET receptor and Nb6, source data Figure 5b", "setting": "ETA [2]; Log [Endothelin-1,] M = -6", "result": "5.268 and 6.925 and 6.885"},
      {"measurement": "Net BRET receptor and Nb6, source data Figure 5b", "setting": "ETA [2]; Log [Endothelin-1,] M = -7", "result": "45.5139 and 37.9048 and 42.0353"},
      {"measurement": "Net BRET receptor and Nb6, source data Figure 5b", "setting": "ETA [2]; Log [Endothelin-1,] M = -8", "result": "94.8754 and 92.9034 and 94.0384"},
      {"measurement": "Net BRET receptor and Nb6, source data Figure 5b", "setting": "ETA [2]; Log [Endothelin-1,] M = -9", "result": "99.5856 and 100.414 and 100.568"},
      {"measurement": "Net BRET receptor and Nb6, source data Figure 5b", "setting": "ETA [2]; Log [Endothelin-1,] M = -10", "result": "98.7901 and 95.8099 and 98.252"},
      {"measurement": "Net BRET receptor and Nb6, source data Figure 5b", "setting": "ETA [2]; Log [Endothelin-1,] M = -11", "result": "101.512 and 91.9128 and 97.2504"}
    ]},
    {"molecule": "NC(=O)c1ccc(Oc2ccc(CN3CCC[C@H]3c3cccnc3)cc2)c(F)c1", "note": "[LY2459989]", "values": [
      {"measurement": "increase of binding affinity in the presence of Nb6", "setting": "KOR", "result": "~ 6 fold"},
      {"measurement": "Ki", "setting": "KOR; read-out: Ki ± SEM", "result": "3.4 ± 0.25", "unit": "nM"}
    ]},
    {"molecule": "Nb6-mVenus with R102 mutated (VHH, as the chain of m4 (PDB 6VI4) with R102 mutated; also called Nb6 R102 mutant; source: HEK 293T, co-transfected, in live cells; not shown: mVenus, C-terminal, kept) VHH: QVQLQESGGGLVQAGESLRLSCAASGTIFRLYDMGWYRRVSGNQRELVASITSGGSTKYGDSVKGRFTISRDNAKNTVYLQMSSLKPEDTAVYYCNAEYATGIWEELLDGWGQGTQVTVSS", "values": [
      {"measurement": "binding result", "setting": "[3]", "result": "no binding"}
    ]},
    {"molecule": "Nb6-mVenus with W106 mutated (VHH, as the chain of m4 (PDB 6VI4) with W106 mutated; also called Nb6 W106 mutant; source: HEK 293T, co-transfected, in live cells; not shown: mVenus, C-terminal, kept) VHH: QVQLQESGGGLVQAGESLRLSCAASGTIFRLYDMGWYRRVSGNQRELVASITSGGSTKYGDSVKGRFTISRDNAKNTVYLQMSSLKPEDTAVYYCNAEYRTGIAEELLDGWGQGTQVTVSS", "values": [
      {"measurement": "binding result", "setting": "[3]", "result": "no binding"}
    ]},
    {"molecule": "Nb39-mVenus (VHH, nanobody chain of the cited KOR-MP1104-Nb39 structure PDB 6B73; A purified Nb39 from E. coli WK6 (no mVenus) was used at 5 µM in the radioligand assays; the functional row on it uses this id; also called positive allosteric nanobody; active-state associated nanobody; source: HEK 293T, co-transfected, in live cells; not shown: mVenus, C-terminal, kept) VHH: QVQLVESGGGLVRPGGSLRLSCVDSERTSYPMGWFRRAPGKEREFVASITWSGIDPTYADSVADRFTTSRDVANNTLYLQMNSLKHEDTAVYYCAARAPVGQSSSPYDYDYWGQGTQVTVSS", "values": [
      {"measurement": "t1/2 of the reversal of the KOR-Nb39 association by JDTic", "setting": "[4]", "result": "1.78 ± 0.25", "unit": "min"}
    ]}
  ]
}
